Test [1] has as its target T1, TgIMPα (Toxoplasma gondii, UniProt A0A125YID0).
T1 sequence (A0A125YID0 1-545): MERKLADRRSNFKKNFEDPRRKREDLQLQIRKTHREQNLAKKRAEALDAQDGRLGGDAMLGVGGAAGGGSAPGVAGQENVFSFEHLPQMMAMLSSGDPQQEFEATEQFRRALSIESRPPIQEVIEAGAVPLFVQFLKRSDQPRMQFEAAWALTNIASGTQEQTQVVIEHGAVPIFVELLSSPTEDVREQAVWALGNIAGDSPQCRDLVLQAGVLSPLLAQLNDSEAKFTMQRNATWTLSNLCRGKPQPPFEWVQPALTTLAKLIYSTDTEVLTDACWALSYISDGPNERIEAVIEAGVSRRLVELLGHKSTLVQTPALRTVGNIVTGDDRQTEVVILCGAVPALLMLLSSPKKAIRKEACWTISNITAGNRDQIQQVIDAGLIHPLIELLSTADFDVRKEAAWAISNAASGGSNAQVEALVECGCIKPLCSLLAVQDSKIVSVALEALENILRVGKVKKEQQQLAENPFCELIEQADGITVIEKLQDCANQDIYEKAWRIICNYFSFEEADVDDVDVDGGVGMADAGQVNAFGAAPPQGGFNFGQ
As to the kind of experiment: intrinsic tryptophan fluorescence quenching. The test is classed as binding.

For test [2], the system named is T. gondii. As to the kind of experiment: microbe, parasite or virus in culture. Details: species or system T. gondii RH-luciferase in HFF. To be noted: Toxoplasma gondii, read-out: Cell viability IC50 (µM).
The target in test [3] is T1, TgIMPα. The experiment in a line: AlphaScreen, inhibition of IMPα:NLS interaction. The test is classed as binding. For orientation: Bead proximity is the source of the signal in Alpha formats.
Test [4] concerns the target T2, PfIMPα (Plasmodium falciparum, UniProt Q8IAW0).
T2 sequence (Q8IAW0 1-545): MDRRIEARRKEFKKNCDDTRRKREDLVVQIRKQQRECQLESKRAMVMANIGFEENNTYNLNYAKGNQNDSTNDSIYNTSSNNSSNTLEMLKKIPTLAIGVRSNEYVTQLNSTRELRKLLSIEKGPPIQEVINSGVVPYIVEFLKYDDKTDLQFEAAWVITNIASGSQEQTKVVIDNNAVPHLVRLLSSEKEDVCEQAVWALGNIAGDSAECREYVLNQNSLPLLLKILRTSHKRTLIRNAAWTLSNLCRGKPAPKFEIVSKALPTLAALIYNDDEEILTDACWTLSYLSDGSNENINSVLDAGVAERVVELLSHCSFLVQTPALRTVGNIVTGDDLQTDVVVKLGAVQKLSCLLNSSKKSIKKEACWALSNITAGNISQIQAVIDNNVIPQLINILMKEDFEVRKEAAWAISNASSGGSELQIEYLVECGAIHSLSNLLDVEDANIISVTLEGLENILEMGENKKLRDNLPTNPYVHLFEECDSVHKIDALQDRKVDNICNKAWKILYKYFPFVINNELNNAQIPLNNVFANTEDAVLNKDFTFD
As to the kind of experiment: intrinsic tryptophan fluorescence quenching. The class given is binding.

Each structure is given as a SMILES string.

One may read the IC50 as the concentration at which inhibition is half-maximal.

On to `Cc1ccc(S(=O)(=O)/C=C/C#N)cc1` [Bay 11-7082], for which the IC50 turned out to be 17.5 ± 3.3 µM in test [1], 1.06 ± 0.07 µM in test [2] and 8.2 ± 1.3 µM in test [3].

In the case of `CC(C)(C)c1ccc(S(=O)(=O)/C=C/C#N)cc1` [Bay 11-7085], the IC50 in test [1] worked out at 27.7 ± 9.4 µM; in test [4], 19.9 ± 3.7 µM.

(Values after publication doi:10.1101/2024.07.10.602875v1 (biorxiv, 2024).)
